Reference: DBAASP
≈ marks a conversion by molar mass, not a printed value.

Assays:
Test in all cases: ≥ marks a high value that may be exact or a test limit, other limits are often not marked, values filed in µg/mL are converted to µM
[1] = tested on: Pseudomonas aeruginosa Ps4
[2] = tested on: Staphylococcus aureus ATCC 12600
[3] = tested on: Escherichia coli ATCC 11775
[4] = tested on: Staphylococcus aureus ATCC 33591
[5] = tested on: Escherichia coli ATCC 2592
[6] = tested on: Cryptococcus neoformans ATCC 32045
[7] = tested on: Candida albicans ATCC 10231
[8] = tested on: Pseudomonas aeruginosa ATCC 10145
Escherichia coli JW0013 = tested on: Escherichia coli JW0013

Row | Compound | MIC [1] [µM] | MIC [4] [µM] | MIC [5] [µM] | MIC [6] [µM] | MIC [7] [µM] | MIC [8] [µM] | also measured
1 | CC[C@H](C)[C@H](NC(=O)[C@H](CC(N)=O)NC(=O)[C@H](CCCN=C(N)N)NC(=O)[C@H](CCC(N)=O)NC(=O)[C@H](Cc1c[nH]c2ccccc12)NC(=O)[C@H](Cc1ccccc1)NC(=O)[C@@H](N)CS)C(=O)N[C@@H](CCCN=C(N)N)C(=O)N[C@@H](CCCCN)C(=O)N[C@H](C(=O)N[C@@H](CS)C(=O)N[C@@H](CCCN=C(N)N)C(N)=O)C(C)C [CFWQRNIRKVCR] | ≥ 155 |  |  |  |  |  | 
2 | CC[C@H](C)[C@H](NC(=O)[C@H](CC(N)=O)NC(=O)[C@H](CCCN=C(N)N)NC(=O)[C@@H](NC(=O)[C@H](Cc1c[nH]c2ccccc12)NC(=O)[C@@H](N)Cc1ccccc1)[C@@H](C)CC)C(=O)N[C@@H](CCCN=C(N)N)C(=O)N[C@@H](CCCCN)C(=O)N[C@H](C(=O)N[C@@H](CCCN=C(N)N)C(N)=O)C(C)C [FWIRNIRKVR] | ≥ 180 |  |  |  |  |  | 
3 | CC[C@H](C)[C@H](NC(=O)[C@H](CCCN=C(N)N)NC(=O)[C@H](CCCN=C(N)N)NC(=O)[C@H](CCCN=C(N)N)NC(=O)[C@@H](NC(=O)[C@H](CCCCN)NC(=O)[C@H](CCCN=C(N)N)NC(=O)[C@@H](NC(=O)[C@H](CC(N)=O)NC(=O)[C@H](CCCN=C(N)N)NC(=O)[C@H](CCC(N)=O)NC(=O)[C@H](Cc1c[nH]c2ccccc12)NC(=O)[C@@H](N)Cc1ccccc1)[C@@H](C)CC)C(C)C)C(N)=O [FWQRNIRKVRRRI] | ≥ 137 |  |  |  |  |  | 
4 | CC[C@H](C)[C@H](NC(=O)[C@H](CC(N)=O)NC(=O)[C@H](CCCN=C(N)N)NC(=O)[C@H](CCC(N)=O)NC(=O)[C@H](Cc1c[nH]c2ccccc12)NC(=O)[C@@H](N)Cc1ccccc1)C(=O)N[C@@H](CCCN=C(N)N)C(=O)N[C@H](C(=O)N[C@@H](CCCN=C(N)N)C(N)=O)C(C)C [FWQRNIRVR] | ≥ 196 |  |  |  |  |  | 
5 | CC[C@H](C)[C@H](NC(=O)[C@H](CC(N)=O)NC(=O)[C@H](CCCN=C(N)N)NC(=O)[C@@H](NC(=O)[C@H](Cc1c[nH]c2ccccc12)NC(=O)[C@@H](N)Cc1ccccc1)C(C)C)C(=O)N[C@@H](CCCN=C(N)N)C(=O)N[C@@H](CCCCN)C(=O)N[C@H](C(=O)N[C@@H](CCCN=C(N)N)C(N)=O)C(C)C [FWVRNIRKVR] | ≥ 250 |  |  |  |  |  | 
6 | CC[C@H](C)[C@H](N)C(=O)N[C@H](C(=O)N1CCC[C@H]1C(=O)N[C@@H](CC(C)C)C(=O)N1CCC[C@H]1C(=O)N[C@@H](CC(C)C)C(=O)NCC(=O)N[C@@H](Cc1ccc(O)cc1)C(=O)N[C@@H](Cc1ccccc1)C(=O)N[C@@H](C)C(=O)N[C@@H](CCCCN)C(=O)N[C@@H](CCCCN)C(=O)N[C@H](C(=O)O)[C@@H](C)O)[C@@H](C)CC [IIPLPLGYFAKKT] |  |  |  |  |  |  | MIC [2]: 6 µM (≈ 8.76 µg/mL); MIC [3]: 3 µM (≈ 4.38 µg/mL)
7 | C[C@H](NC(=O)[C@H](C)NC(=O)[C@H](CCCCN)NC(=O)[C@H](CCCCN)NC(=O)[C@H](C)NC(=O)[C@H](C)NC(=O)[C@H](CCCCN)NC(=O)[C@H](CCCCN)NC(=O)[C@H](C)NC(=O)[C@H](C)NC(=O)[C@H](CCCCN)NC(=O)[C@H](CCCCN)NC(=O)[C@H](C)NC(=O)[C@H](C)NC(=O)[C@H](CCCCN)NC(=O)[C@H](CCCCN)NC(=O)[C@H](C)NC(=O)[C@H](C)NC(=O)[C@H](CCCCN)NC(=O)[C@H](CCCCN)NC(=O)[C@H](C)NC(=O)[C@H](C)NC(=O)[C@H](CCCCN)NC(=O)[C@H](CCCCN)NC(=O)[C@H](C)NC(=O)[C@H](C)NC(=O)[C@@H](N)CCCCN)C(=O)N[C@@H](CCCCN)C(=O)O [KAAKKAAKKAAKKAAKKAAKKAAKKAAK] |  | ≥ 178 | ≥ 178 | 31.4 (≈ 88 µg/mL) | > 178 | ≥ 89 | 
8 | NCCCC[C@H](NC(=O)[C@H](Cc1ccccc1)NC(=O)[C@H](CCCCN)NC(=O)[C@H](CCCCN)NC(=O)[C@H](Cc1ccccc1)NC(=O)[C@H](CCCCN)NC(=O)[C@H](CCCCN)NC(=O)[C@H](Cc1ccccc1)NC(=O)[C@H](CCCCN)NC(=O)[C@H](CCCCN)NC(=O)[C@H](Cc1ccccc1)NC(=O)[C@H](CCCCN)NC(=O)[C@H](CCCCN)NC(=O)[C@H](Cc1ccccc1)NC(=O)[C@H](CCCCN)NC(=O)[C@H](CCCCN)NC(=O)[C@H](Cc1ccccc1)NC(=O)[C@@H](N)CCCCN)C(=O)O [KFKKFKKFKKFKKFKKFK] |  | ≥ 205 | ≥ 36.1 | 20.4 (≈ 49.8 µg/mL) | 145 (≈ 354 µg/mL) | ≥ 51.2 | 
9 | C[C@H](NC(=O)[C@H](Cc1ccccc1)NC(=O)[C@H](CCCCN)NC(=O)[C@H](CCCCN)NC(=O)[C@H](C)NC(=O)[C@H](Cc1ccccc1)NC(=O)[C@H](CCCCN)NC(=O)[C@H](CCCCN)NC(=O)[C@H](C)NC(=O)[C@H](Cc1ccccc1)NC(=O)[C@H](CCCCN)NC(=O)[C@H](CCCCN)NC(=O)[C@H](C)NC(=O)[C@H](Cc1ccccc1)NC(=O)[C@H](CCCCN)NC(=O)[C@H](CCCCN)NC(=O)[C@H](C)NC(=O)[C@H](Cc1ccccc1)NC(=O)[C@H](CCCCN)NC(=O)[C@H](CCCCN)NC(=O)[C@H](C)NC(=O)[C@H](Cc1ccccc1)NC(=O)[C@H](CCCCN)NC(=O)[C@@H](N)CCCCN)C(=O)O [KKFAKKFAKKFAKKFAKKFAKKFA] |  | ≥ 87.2 | 7.9 (≈ 22.6 µg/mL) | 15.5 (≈ 44.5 µg/mL) | 61.7 (≈ 177 µg/mL) | 21.6 (≈ 62 µg/mL) | 
10 | CC(C)C[C@H](NC(=O)[C@H](C)NC(=O)[C@H](CC(C)C)NC(=O)[C@H](C)NC(=O)[C@H](CC(C)C)NC(=O)[C@H](C)NC(=O)[C@H](CC(C)C)NC(=O)[C@H](C)NC(=O)[C@H](CC(C)C)NC(=O)[C@H](C)NC(=O)[C@H](CC(C)C)NC(=O)[C@H](C)NC(=O)[C@H](CC(C)C)NC(=O)[C@H](C)NC(=O)[C@H](CC(C)C)NC(=O)[C@H](C)NC(=O)[C@H](CC(C)C)NC(=O)[C@H](C)NC(=O)[C@H](CC(C)C)NC(=O)[C@H](C)NC(=O)[C@@H](N)CC(C)C)C(=O)N[C@@H](C)C(=O)O [LALALALALALALALALALALA] |  | ≥ 86.5 | ≥ 86.5 | ≥ 43.1 | > 245 | ≥ 122 | 
11 | CC(C)C[C@H](NC(=O)[C@H](CCCCN)NC(=O)[C@H](CC(C)C)NC(=O)[C@H](CCCCN)NC(=O)[C@H](CC(C)C)NC(=O)[C@H](CCCCN)NC(=O)[C@H](CC(C)C)NC(=O)[C@H](CCCCN)NC(=O)[C@H](CC(C)C)NC(=O)[C@H](CCCCN)NC(=O)[C@H](CC(C)C)NC(=O)[C@H](CCCCN)NC(=O)[C@H](CC(C)C)NC(=O)[C@H](CCCCN)NC(=O)[C@H](CC(C)C)NC(=O)[C@H](CCCCN)NC(=O)[C@H](CC(C)C)NC(=O)[C@H](CCCCN)NC(=O)[C@@H](N)CC(C)C)C(=O)N[C@@H](CCCCN)C(=O)O [LKLKLKLKLKLKLKLKLKLK] |  | ≥ 72.7 | ≥ 79.6 | ≥ 36.2 | 145 (≈ 354 µg/mL) | ≥ 51.4 | 
12 | CC(C)C[C@H](NC(=O)[C@H](CCCCN)NC(=O)[C@H](CC(C)C)NC(=O)[C@H](CCCCN)NC(=O)[C@H](CC(C)C)NC(=O)[C@H](CCCCN)NC(=O)[C@H](CC(C)C)NC(=O)[C@H](CCCCN)NC(=O)[C@H](CC(C)C)NC(=O)[C@H](CCCCN)NC(=O)[C@H](CC(C)C)NC(=O)[C@H](CCCCN)NC(=O)[C@H](CC(C)C)NC(=O)[C@H](CCCCN)NC(=O)[C@H](CC(C)C)NC(=O)[C@H](CCCCN)NC(=O)[C@@H](N)CC(C)C)C(=O)N[C@@H](CCCCN)C(=O)O [LKLKLKLKLKLKLKLKLK] |  | ≥ 161 | ≥ 40.2 | 20.3 (≈ 44.5 µg/mL) | 161 (≈ 354 µg/mL) | ≥ 36.5 | 
13 | CC(C)C[C@H](NC(=O)[C@H](CCCCN)NC(=O)[C@H](CC(C)C)NC(=O)[C@H](CCCCN)NC(=O)[C@H](CC(C)C)NC(=O)[C@H](CCCCN)NC(=O)[C@H](CC(C)C)NC(=O)[C@H](CCCCN)NC(=O)[C@H](CC(C)C)NC(=O)[C@H](CCCCN)NC(=O)[C@H](CC(C)C)NC(=O)[C@H](CCCCN)NC(=O)[C@H](CC(C)C)NC(=O)[C@H](CCCCN)NC(=O)[C@@H](N)CC(C)C)C(=O)N[C@@H](CCCCN)C(=O)O [LKLKLKLKLKLKLKLK] |  | ≥ 90.7 | ≥ 64.1 | 23 (≈ 44.9 µg/mL) | 181 (≈ 354 µg/mL) | ≥ 66.7 | 
14 | CC[C@H](C)[C@H](NC(=O)[C@H](CC(N)=O)NC(=O)[C@H](CCCN=C(N)N)NC(=O)[C@H](CCC(N)=O)NC(=O)[C@H](Cc1c[nH]c2ccccc12)NC(=O)[C@H](CCCN=C(N)N)NC(=O)[C@@H](N)CCCN=C(N)N)C(=O)N[C@@H](CCCN=C(N)N)C(=O)N[C@@H](CCCCN)C(=O)N[C@H](C(=O)N[C@@H](CCCN=C(N)N)C(=O)N[C@@H](CCCN=C(N)N)C(N)=O)C(C)C [RRWQRNIRKVRR] | ≥ 145 |  |  |  |  |  | 
15 | CC[C@H](C)[C@H](NC(=O)[C@H](CC(N)=O)NC(=O)[C@H](CCCN=C(N)N)NC(=O)[C@H](CCC(N)=O)NC(=O)[C@H](Cc1c[nH]c2ccccc12)NC(=O)[C@@H](N)CCCN=C(N)N)C(=O)N[C@@H](CCCN=C(N)N)C(=O)N[C@@H](CCCCN)C(=O)N[C@H](C(=O)N[C@@H](CCCN=C(N)N)C(=O)N[C@@H](CCCN=C(N)N)C(N)=O)C(C)C [RWQRNIRKVRR] | ≥ 159 |  |  |  |  |  | 
16 | CC[C@H](C)[C@H](NC(=O)[C@H](CCCN=C(N)N)NC(=O)[C@H](CCCN=C(N)N)NC(=O)[C@@H]1CCCN1C(=O)[C@@H]1CCCN1C(=O)[C@H](CCCN=C(N)N)NC(=O)[C@@H]1CCCN1C(=O)[C@H](CCCN=C(N)N)NC(=O)[C@@H]1CCCN1C(=O)[C@H](CC(C)C)NC(=O)[C@H](Cc1ccc(O)cc1)NC(=O)[C@@H]1CCCN1C(=O)[C@@H]1CCCN1C(=O)[C@H](CCCCN)NC(=O)[C@H](Cc1ccc(O)cc1)NC(=O)[C@@H](N)C(C)C)C(=O)N[C@@H](Cc1ccc(O)cc1)C(=O)N[C@@H](CC(N)=O)C(=O)N[C@@H](CCCN=C(N)N)C(N)=O [VYKPPYLPRPRPPRRIYNR] |  |  |  |  |  |  | MIC (Escherichia coli JW0013): 1.97 µM (≈ 4.8 µg/mL)
